In ChEMBL document CHEMBL6074683, “Design, synthesis and investigation of biological activity and mechanism of fluoroaryl-substituted derivatives at the FL118 position 7” (Eur J Med Chem, 2025):
Activity calls are given as the source filed them. No cut-off for these calls is given here.

Columns and labels:
[1] = test system: A549; experiment: Cytotoxicity against human A549 cells incubated for 72 hrs by MTT assay; type: functional, cell-based; conditions: A549, 72 h
[2] = test system: HeLa; experiment: Cytotoxicity against human HeLa cells incubated for 72 hrs by MTT assay; type: functional, cell-based
[3] = test system: HCT-116; experiment: Cytotoxicity against human HCT-116 cells incubated for 72 hrs by MTT assay; type: functional, cell-based; conditions: HCT-116, 72 h
[4] = test system: HepG2; experiment: Cytotoxicity against human HepG2 cells incubated for 72 hrs by MTT assay; type: functional, cell-based; conditions: HepG2, 72 h
[5] = Apparent permeability across apical to basolateral side in human Caco-2 cells measured upto 120 mins by LC-MS/MS method; type: ADME, cell-based
[6] = Efflux ratio of apparent permeability across basolateral to apical over apical to basolateral side in human Caco-2 cells; type: ADME, cell-based
[7] = test system: HCT-116; experiment: Downregulation of DDX5 protein expression in human HCT-116 cells at 100 nM incubated upto 72 hrs by Western blotting assay; type: functional, cell-based

SMILES | IC50 [1] | IC50 [2] | IC50 [3] | IC50 [4] | Papp A→B at 2 h [5] | efflux ratio [6] | Activity [7]
CC[C@@]1(O)C(=O)OCc2c1cc1n(c2=O)Cc2c-1nc1cc3c(cc1c2-c1cccc(C(F)(F)F)c1)OCO3 | 82.9 nM | 20.2 nM | 73.6 nM | 35 nM | – | – | –
CC[C@@]1(O)C(=O)OCc2c1cc1n(c2=O)Cc2c-1nc1cc3c(cc1c2-c1cc(C)cc(F)c1)OCO3 | 30.6 nM | 56.5 nM | 41.4 nM | 56 nM | – | – | –
CC[C@@]1(O)C(=O)OCc2c1cc1n(c2=O)Cc2c-1nc1cc3c(cc1c2-c1cc(F)cc(OC)c1)OCO3 | 15.5 nM | 124 nM | 66.9 nM | 48.5 nM | – | – | –
CC[C@@]1(O)C(=O)OCc2c1cc1n(c2=O)Cc2cc3cc4c(cc3nc2-1)OCO4 | 81.8 nM | 34.7 nM | 66.5 nM | 68.5 nM | 6.97 ×10⁻⁶ cm/s | 1.2 | –
CC[C@@]1(O)C(=O)OCc2c1cc1n(c2=O)Cc2c-1nc1cc3c(cc1c2-c1ccc(OC)c(F)c1)OCO3 | 70.2 nM | 24.3 nM | 43.2 nM | 172 nM | – | – | –
CC[C@@]1(O)C(=O)OCc2c1cc1n(c2=O)Cc2c-1nc1cc3c(cc1c2-c1ccc(F)cc1)OCO3 | 19.8 nM | 11.1 nM | 32.7 nM | 46.3 nM | – | – | –
CC[C@@]1(O)C(=O)OCc2c1cc1n(c2=O)Cc2c-1nc1cc3c(cc1c2-c1cccc(F)c1)OCO3 | 40 nM | 34.7 nM | 150 nM | 155 nM | – | – | –
CCc1c2c(nc3ccc(O)cc13)-c1cc3c(c(=O)n1C2)COC(=O)[C@]3(O)CC [7-ETHYL-10-HYDROXYCAMPTOTHECIN] | 475 nM | 234 nM | 367 nM | 268 nM | – | – | inactive
